Data published in paper PMC3534050, “Simultaneous Single-Sample Determination of NMNAT Isozyme Activities in Mouse Tissues” (PLoS ONE, 2012).
Like-named read-outs stand apart in the source and are kept apart here.

Test system: T1, Wld^S
T1 construct: gene Nmnat1; full-length Wld^S ORF (1119 bp): N-terminal Ube4b fragment fused to NMNAT1; predicted mass 44001 Da; with Ubiquitin conjugation factor E4 B
Experiment: C18-HPLC of NAD formed, nonlinear fit
Assay type: biochemical, Mus musculus
Conditions: HEPES/KOH pH 7.5, MgCl2, 37°C
Description: C18-HPLC of NAD formed, nonlinear fit on Wld^S

Nc1ncnc2c1ncn2[C@@H]1O[C@H](COP(=O)(O)OP(=O)(O)OP(=O)(O)O)[C@@H](O)[C@H]1O [ATP]
Km (read-out: ATP / K m, co-substrate NMN, ATP 25–175 µM): 29.6 ± 1.8 µM

NC(=O)c1ccc[n+]([C@@H]2O[C@H](COP(=O)(O)O)[C@@H](O)[C@H]2O)c1 [NMN]
Km (co-substrate ATP, NMN 5–100 µM, read-out: NMN / K m): 32.2 ± 1.2 µM
